From patent publication US20080188666A1, “LINEAR PHENYL-SUBSTITUTED INDAZOLES AND INDOLES, A PROCESS FOR THEIR PRODUCTION AND THEIR USE AS ANTI-INFLAMMATORY AGENTS” (priority 2006, published 2008)

Experiments:
androgen receptor (AR) = target: T1, androgen receptor (AR) (Homo sapiens, UniProt P10275); assay: binding to recombinantly produced androgen receptor; settings: recombinant receptor
T1 construct: made in house
T1 sequence (P10275 1-920): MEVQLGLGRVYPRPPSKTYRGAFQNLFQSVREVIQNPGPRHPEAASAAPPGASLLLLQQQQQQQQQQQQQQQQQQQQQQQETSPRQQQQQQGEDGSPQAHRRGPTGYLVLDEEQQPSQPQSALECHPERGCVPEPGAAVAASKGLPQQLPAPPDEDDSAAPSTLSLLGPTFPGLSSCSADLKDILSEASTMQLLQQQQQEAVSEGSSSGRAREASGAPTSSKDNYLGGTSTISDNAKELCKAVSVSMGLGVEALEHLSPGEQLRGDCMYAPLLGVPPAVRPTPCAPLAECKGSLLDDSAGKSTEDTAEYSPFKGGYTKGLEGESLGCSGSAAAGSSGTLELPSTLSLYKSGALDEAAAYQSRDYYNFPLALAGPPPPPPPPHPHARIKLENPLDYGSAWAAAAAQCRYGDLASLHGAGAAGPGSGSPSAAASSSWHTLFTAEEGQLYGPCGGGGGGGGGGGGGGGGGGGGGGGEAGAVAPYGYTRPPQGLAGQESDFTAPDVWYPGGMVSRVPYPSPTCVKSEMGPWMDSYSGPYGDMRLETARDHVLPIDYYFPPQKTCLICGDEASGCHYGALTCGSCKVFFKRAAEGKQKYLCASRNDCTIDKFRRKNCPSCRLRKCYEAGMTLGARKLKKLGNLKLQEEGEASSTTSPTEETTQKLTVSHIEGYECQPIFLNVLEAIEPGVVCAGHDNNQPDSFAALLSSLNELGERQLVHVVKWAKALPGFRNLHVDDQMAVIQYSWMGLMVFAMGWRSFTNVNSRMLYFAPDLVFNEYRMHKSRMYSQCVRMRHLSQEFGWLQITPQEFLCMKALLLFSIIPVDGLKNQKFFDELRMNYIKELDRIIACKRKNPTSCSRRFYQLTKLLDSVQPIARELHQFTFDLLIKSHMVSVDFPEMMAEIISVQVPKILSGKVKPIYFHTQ
Excerpt: (§1) The binding of the substances to the glucocorticoid receptor (GR) and other steroid hormone receptors (mineral corticoid receptor (MR), progesterone receptor (PR) and androgen receptor (AR)) is examined with the aid of recombinantly produced receptors. Cytosol preparations of Sf9 cells, which had been infected with recombinant baculoviruses, which code for the GR, are used for the binding studies. In comparison to reference substance [^3H]-dexamethasone, the substances show a high to very high affinity to GR. IC50(GR)=6.0 nM was thus measured for the compound from Example B7; IC50(MR), IC50(PR), IC50(AR)>1 μmol.

[1] = target: T2, progesterone receptor (PR) (Homo sapiens, UniProt P06401); assay: binding to recombinantly produced progesterone receptor; settings: recombinant receptor
T2 construct: made in house
T2 sequence (P06401 1-933): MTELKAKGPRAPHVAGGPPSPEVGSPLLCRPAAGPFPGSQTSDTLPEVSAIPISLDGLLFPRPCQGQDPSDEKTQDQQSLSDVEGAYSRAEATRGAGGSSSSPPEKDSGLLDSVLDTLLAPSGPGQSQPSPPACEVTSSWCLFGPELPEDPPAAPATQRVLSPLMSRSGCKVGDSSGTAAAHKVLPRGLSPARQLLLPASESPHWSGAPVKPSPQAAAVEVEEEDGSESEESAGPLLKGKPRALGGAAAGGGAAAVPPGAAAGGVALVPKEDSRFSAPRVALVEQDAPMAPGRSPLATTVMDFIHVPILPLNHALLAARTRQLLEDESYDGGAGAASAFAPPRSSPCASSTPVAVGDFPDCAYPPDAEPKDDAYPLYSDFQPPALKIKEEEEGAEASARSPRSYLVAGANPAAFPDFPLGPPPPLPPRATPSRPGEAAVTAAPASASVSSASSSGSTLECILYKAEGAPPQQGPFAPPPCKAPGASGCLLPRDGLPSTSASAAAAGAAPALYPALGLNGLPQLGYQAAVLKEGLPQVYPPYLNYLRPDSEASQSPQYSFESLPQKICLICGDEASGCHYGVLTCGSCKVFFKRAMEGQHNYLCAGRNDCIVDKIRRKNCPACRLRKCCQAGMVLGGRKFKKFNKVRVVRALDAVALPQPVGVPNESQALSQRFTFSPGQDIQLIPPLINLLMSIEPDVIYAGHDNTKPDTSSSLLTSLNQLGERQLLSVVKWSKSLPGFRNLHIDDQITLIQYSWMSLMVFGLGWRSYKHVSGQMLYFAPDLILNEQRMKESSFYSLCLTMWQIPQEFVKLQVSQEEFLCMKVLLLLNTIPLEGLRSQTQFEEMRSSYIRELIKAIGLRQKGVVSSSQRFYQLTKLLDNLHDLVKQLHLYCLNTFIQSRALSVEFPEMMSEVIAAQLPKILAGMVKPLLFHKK
Excerpt: as §1

[2] = target: T3, mineral corticoid receptor (MR) (Homo sapiens, UniProt P08235); assay: binding to recombinantly produced mineral corticoid receptor; settings: recombinant receptor
T3 construct: made in house
T3 sequence (P08235 1-984): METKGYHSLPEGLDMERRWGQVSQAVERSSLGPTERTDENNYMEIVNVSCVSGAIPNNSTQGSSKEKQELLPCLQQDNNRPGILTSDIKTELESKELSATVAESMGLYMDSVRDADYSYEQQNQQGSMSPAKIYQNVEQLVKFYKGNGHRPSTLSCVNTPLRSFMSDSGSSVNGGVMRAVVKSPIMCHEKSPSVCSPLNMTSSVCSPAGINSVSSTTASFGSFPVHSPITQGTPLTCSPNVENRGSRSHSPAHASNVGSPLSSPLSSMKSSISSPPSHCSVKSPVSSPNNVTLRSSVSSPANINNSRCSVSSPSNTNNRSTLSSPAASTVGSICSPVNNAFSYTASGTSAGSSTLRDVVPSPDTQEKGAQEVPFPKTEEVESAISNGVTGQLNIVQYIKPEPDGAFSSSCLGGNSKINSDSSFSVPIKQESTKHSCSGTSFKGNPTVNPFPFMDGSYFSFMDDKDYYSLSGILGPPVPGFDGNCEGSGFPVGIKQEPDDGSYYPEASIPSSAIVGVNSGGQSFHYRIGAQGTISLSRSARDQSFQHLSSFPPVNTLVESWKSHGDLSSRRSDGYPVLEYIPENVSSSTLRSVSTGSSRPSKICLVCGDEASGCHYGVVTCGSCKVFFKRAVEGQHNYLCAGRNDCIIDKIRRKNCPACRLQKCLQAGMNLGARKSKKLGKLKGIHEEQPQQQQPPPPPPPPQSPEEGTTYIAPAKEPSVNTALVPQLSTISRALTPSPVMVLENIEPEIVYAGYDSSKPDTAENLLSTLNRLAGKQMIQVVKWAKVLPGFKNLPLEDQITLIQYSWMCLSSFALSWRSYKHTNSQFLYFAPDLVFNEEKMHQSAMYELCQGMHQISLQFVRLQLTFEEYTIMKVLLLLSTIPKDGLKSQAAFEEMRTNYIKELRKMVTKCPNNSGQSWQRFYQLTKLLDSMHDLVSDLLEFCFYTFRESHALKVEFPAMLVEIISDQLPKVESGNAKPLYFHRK
Excerpt: as §1

[3] = tested on: secretion of cytokine IL-8 in human monocyte cell line THP-1; assay: inhibition of LPS-triggered IL-8 secretion in THP-1 cells (ELISA); format: cell-based
Protocol: The concentration of the cytokines was determined in the supernatant by means of commercially available ELISA kits.

[4] = target: T4, glucocorticoid receptor (GR) (Homo sapiens, UniProt P04150); assay: binding to recombinantly produced glucocorticoid receptor, Sf9 cytosol, [3H]-dexamethasone reference; settings: recombinant GR
T4 construct: made in house; host or cells: Sf9 cells infected with recombinant baculovirus (cytosol preparation)
T4 sequence (P04150 1-777): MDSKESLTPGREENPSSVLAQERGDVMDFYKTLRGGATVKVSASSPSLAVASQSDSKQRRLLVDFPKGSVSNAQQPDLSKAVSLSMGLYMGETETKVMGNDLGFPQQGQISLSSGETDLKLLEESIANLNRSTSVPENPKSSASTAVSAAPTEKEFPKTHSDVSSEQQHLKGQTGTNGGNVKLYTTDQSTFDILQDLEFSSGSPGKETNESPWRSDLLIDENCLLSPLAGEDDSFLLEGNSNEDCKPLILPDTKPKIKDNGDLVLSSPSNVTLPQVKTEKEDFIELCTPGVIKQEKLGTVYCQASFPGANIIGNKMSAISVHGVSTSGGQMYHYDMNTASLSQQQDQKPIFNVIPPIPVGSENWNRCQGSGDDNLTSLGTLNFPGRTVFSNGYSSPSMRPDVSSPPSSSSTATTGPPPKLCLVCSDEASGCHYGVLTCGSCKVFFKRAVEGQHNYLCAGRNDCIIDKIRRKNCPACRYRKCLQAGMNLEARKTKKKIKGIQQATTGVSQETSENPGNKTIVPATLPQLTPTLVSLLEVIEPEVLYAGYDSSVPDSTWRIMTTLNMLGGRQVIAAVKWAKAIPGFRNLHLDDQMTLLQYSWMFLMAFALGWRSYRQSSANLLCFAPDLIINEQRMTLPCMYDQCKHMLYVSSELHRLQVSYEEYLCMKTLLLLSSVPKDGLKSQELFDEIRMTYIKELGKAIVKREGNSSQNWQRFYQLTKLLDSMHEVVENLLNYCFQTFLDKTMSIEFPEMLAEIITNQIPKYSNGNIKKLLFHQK
Excerpt: as §1

IC50 (androgen receptor (AR)): > 1000 nM
IC50 [1]: > 1000 nM
IC50 [2]: > 1000 nM
IC50 ([3]; Homo sapiens, THP-1, supernatant ELISA, read-out: IC50(IL8)): 0.72 nM
IC50 [4]: 6 nM
Structure (SMILES): CC(C)(CC(O)(CNc1cccc2c1cnn2-c1ccc(F)nc1)C(F)(F)F)c1cc(F)ccc1O (stereo not drawn) [Example B7, 4-(5-Fluoro-2-hydroxyphenyl)-4-methyl-1-{[1-(6-fluoropyridin-3-yl)indazol-4-yl]amino}-2-(trifluoromethyl)pentan-2-ol]
eff. relative to dexamethasone (IL-8 inhibition) ([3]; THP-1): 97%
